One data set deals with T1, sclerostin (Homo sapiens, UniProt Q9BQB4).
T1 construct: host or cells: human embryonic cells (reporter cells)
T1 sequence (Q9BQB4 24-213): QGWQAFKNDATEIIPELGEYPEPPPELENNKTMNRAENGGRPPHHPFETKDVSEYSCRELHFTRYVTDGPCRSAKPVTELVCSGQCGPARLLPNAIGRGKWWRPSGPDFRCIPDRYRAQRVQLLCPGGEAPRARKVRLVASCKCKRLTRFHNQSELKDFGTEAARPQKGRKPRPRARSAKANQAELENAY
The data set is described as follows: Modulation of sclerostin/Wnt activity (sclerostin inhibition assay): restoring Wnt3a signaling in the presence of sclerostin. The class given is cell-based. To be noted: IC100 class; Wnt3a signaling in human embryonic cells in presence of sclerostin.

The next data set addresses T2, hERG potassium channel (Homo sapiens, UniProt Q12809).
T2 construct: expressed in transfected cells; host or cells: CHO-K1
Description: hERG automated patch clamp assay. The following applies: inhibition of hERG tail current, 5 minutes at room temperature, CHO-K1 cells stably expressing hERG. The class given is cell-based. As to the method: One major type of cardiovascular toxicity associated with pharmaceutical drugs is caused by drug effects on cardiac ion channels like hERG. Drug-induced inhibition of hERG results in a prolonged QT interval, which can lead to a life-threatening ventricular arrhythmia. Therefore, the inhibitory effect of compounds described in Examples 1-46 on the hERG potassium channel was evaluated using an automated patch clamp assay as described in Mathes, C. (2006) Expert Opin. Ther. Targets, 10 (2): 319-327. CHO-K1 cells stably expressing hERG channels were used.
For orientation: The hERG channel carries a current that helps repolarise heart muscle cells.

The test system of data set [1] is MC3T3-E1 (mouse calvarial) osteoblast cells. The data set is described as follows: Rescue of sclerostin inhibition of mineralization (total calcium). The class given is cell-based. The following applies: Mus musculus, MC3T3-E1; IC100 class; calcium concentration, MC3T3 osteoblast cells treated with sclerostin; read-out: Sclerostin Inhibition of Mineralization; improvement over sclerostin alone. The procedure: Mineralization (crystalline calcium phosphate formation) represents an in vitro model of bone formation. […] Following the protocol described in Li et al., Compounds were assayed for their ability to rescue the inhibition of mineralization by sclerostin in MC3T3 osteoblast cells.

In the next data set the test system is MC3T3 osteoblast cells. Description: Osteocalcin (OCN) secretion, bone formation marker, ELISA. The class given is cell-based, mouse. To be noted: Mus musculus; IC100 class; OCN secreted from MC3T3 osteoblast cells treated with sclerostin. The procedure:
Bone formation can also be assayed in vitro or in vivo using a serum marker for bone formation, osteocalcin (OCN), available from Biomedical Tecnhnologies, Inc. (Stoughton, Mass.). Following the manufacturer's protocol for the mouse osteocalcin EIA kit (described at the website www.btiinc.com/page/cata2.html#mouse_osteocalcin), bone formation in MC3T3 osteoblast cells was assayed by measuring the concentration of OCN.

Structures can show the parent of a compound that is named as a salt. Some results are limits rather than exact numbers.

T2 sequence (Q12809 whole entry): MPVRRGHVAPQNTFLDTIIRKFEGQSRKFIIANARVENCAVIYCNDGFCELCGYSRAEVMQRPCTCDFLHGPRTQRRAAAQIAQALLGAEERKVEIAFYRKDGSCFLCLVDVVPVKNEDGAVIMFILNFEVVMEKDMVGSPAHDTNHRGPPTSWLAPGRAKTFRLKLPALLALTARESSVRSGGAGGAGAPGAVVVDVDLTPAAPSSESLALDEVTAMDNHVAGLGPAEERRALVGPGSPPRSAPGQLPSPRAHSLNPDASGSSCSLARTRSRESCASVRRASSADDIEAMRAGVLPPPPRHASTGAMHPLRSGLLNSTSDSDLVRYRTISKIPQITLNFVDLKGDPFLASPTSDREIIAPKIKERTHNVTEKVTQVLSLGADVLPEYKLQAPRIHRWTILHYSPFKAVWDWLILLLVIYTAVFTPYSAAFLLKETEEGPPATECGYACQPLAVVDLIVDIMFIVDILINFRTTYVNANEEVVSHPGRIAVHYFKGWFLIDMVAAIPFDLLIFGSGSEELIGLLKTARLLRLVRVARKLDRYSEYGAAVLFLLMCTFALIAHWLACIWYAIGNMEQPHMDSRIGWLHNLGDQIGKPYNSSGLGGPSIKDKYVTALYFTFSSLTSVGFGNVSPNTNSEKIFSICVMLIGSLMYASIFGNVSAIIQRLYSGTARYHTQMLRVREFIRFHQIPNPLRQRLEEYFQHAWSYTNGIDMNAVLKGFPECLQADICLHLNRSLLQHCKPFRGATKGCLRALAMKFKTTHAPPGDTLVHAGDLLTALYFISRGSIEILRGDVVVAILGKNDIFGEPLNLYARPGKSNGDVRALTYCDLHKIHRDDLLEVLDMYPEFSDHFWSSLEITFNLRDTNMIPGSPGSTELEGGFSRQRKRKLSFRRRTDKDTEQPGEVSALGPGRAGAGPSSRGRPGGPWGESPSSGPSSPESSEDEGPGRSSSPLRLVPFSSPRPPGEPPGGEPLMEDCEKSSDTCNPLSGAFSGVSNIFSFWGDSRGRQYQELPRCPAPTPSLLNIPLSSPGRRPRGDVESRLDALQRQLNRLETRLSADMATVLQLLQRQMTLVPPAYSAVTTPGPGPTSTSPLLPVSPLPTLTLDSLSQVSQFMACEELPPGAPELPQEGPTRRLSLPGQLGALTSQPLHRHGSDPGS

In the case of `COc1ccc2c(c1)[nH]c1c(C)ccnc12` [Example 37, 7-methoxy-4-methyl-5H-pyrido[3,2-b]indole], the “Sclerostin Inhibition Assay; improvement over sclerostin alone.” value at sclerostin is on record as “++ (++ indicates an IC100 < 10 μM)”. The “hERG (1uM)” value at hERG potassium channel is on record as “+ (+ indicates less than 50% inhibition of hERG tail current)”. Moreover, the IC100 (in data set [1]; in the data set on MC3T3 osteoblast cells) was less than 10 µM in each case.

As for `COc1ccc2c3ccnc(C)c3n(CCN3CCCCC3)c2c1` [Example 10, 7-methoxy-1-methyl-9-(2-(piperidin-1-yl)ethyl)-9H-pyrido[3,4-b]indole], on sclerostin, the “Sclerostin Inhibition Assay; improvement over sclerostin alone.” value is given as “++ (++ indicates an IC100 < 10 μM)”. Moreover, the “hERG (1uM)” value on hERG potassium channel was “+ (+ indicates less than 50% inhibition of hERG tail current)”. Also, the IC100 (in data set [1]; in the data set on MC3T3 osteoblast cells) was less than 10 µM throughout.

Regarding `COc1ccc2c3ccnc(C(F)(F)F)c3n(CCN3CCOCC3)c2c1` [Example 25, 4-(2-(7-methoxy-1-(trifluoromethyl)-9H-pyrido[3,4-b]indol-9-yl)ethyl) morpholine], at sclerostin, the “Sclerostin Inhibition Assay; improvement over sclerostin alone.” value is listed as “++ (++ indicates an IC100 < 10 μM)”. The “hERG (1uM)” value at hERG potassium channel was “+ (+ indicates less than 50% inhibition of hERG tail current)”. The IC100 (in data set [1]; with MC3T3 osteoblast cells) was less than 10 µM throughout.

`COc1ccc2c3ccnc(C(F)(F)F)c3n(CC(C)N(C)C)c2c1` (centres unmarked) [Example 27, 1-(7-methoxy-1-(trifluoromethyl)-9H-pyrido[3,4-b]indol-9-yl)-N,N-dimethylpropan-2-amine]: the “Sclerostin Inhibition Assay; improvement over sclerostin alone.” value at sclerostin is “++ (++ indicates an IC100 < 10 μM)”. On hERG potassium channel, the “hERG (1uM)” value is “+ (+ indicates less than 50% inhibition of hERG tail current)”. Also, the IC100 (in data set [1]; in the data set with MC3T3 osteoblast cells) was less than 10 µM throughout.

As for `COc1ccc2c3ccnc(C)c3n(CCCN3CCNCC3)c2c1` [Example 17, 7-methoxy-1-methyl-9-(3-(piperazin-1-yl)propyl)-9H-pyrido[3,4-b]indole trifluoroacetate], the “Sclerostin Inhibition Assay; improvement over sclerostin alone.” value at sclerostin is “++ (++ indicates an IC100 < 10 μM)”. The “hERG (1uM)” value on hERG potassium channel is listed as “+ (+ indicates less than 50% inhibition of hERG tail current)”. The IC100 (in data set [1]; in the data set with MC3T3 osteoblast cells) was less than 10 µM in each case.

For the compound `COc1ccc2c3ccnc(C)c3n(CC(C)N(C)C)c2c1` (centres unmarked) [Example 3, 1-(7-methoxy-1-methyl-9H-pyrido[3,4-b]indol-9-yl)-N,N-dimethylpropan-2-aminium formate], the “Sclerostin Inhibition Assay; improvement over sclerostin alone.” value at sclerostin is on record as “++ (++ indicates an IC100 < 10 μM)”. Also, the “hERG (1uM)” value at hERG potassium channel was “+ (+ indicates less than 50% inhibition of hERG tail current)”. The IC100 (in data set [1]; in the data set on MC3T3 osteoblast cells) was less than 10 µM each time.

In the case of `COc1ccc2c(c1)[nH]c1c(C)[n+]([O-])ccc12` [Example 21, 7-methoxy-1-methyl-9H-pyrido[3,4-b]indole pyridine N-oxide], the “Sclerostin Inhibition Assay; improvement over sclerostin alone.” value at sclerostin is listed as “+ (+ indicates an IC100 > 10 μM)”. Moreover, on hERG potassium channel, the “hERG (1uM)” value is recorded as “+ (+ indicates less than 50% inhibition of hERG tail current)”. For the same compound, the IC100 (in data set [1]; with MC3T3 osteoblast cells) was more than 10 µM in each case.

Turning to `Cc1nccc2c3ccc(O)cc3n(CC(C)N(C)C)c12` (centres unmarked) [Example 4, 9-(2-(dimethylamino)propyl)-1-methyl-9H-pyrido[3,4-b]indol-7-ol], on sclerostin, the “Sclerostin Inhibition Assay; improvement over sclerostin alone.” value was “++ (++ indicates an IC100 < 10 μM)”. On hERG potassium channel, the “hERG (1uM)” value is recorded as “+ (+ indicates less than 50% inhibition of hERG tail current)”. In addition, the IC100 (in data set [1]; in the data set on MC3T3 osteoblast cells) was less than 10 µM each time.

On to `COc1ccc2c3ccnc(C)c3n(CC(C)N3CCCCC3)c2c1` (centres unmarked) [Example 9, 7-methoxy-1-methyl-9-(2-(piperidin-1-yl)propyl)-9H-pyrido[3,4-b]indole], for which the “Sclerostin Inhibition Assay; improvement over sclerostin alone.” value at sclerostin is on record as “++ (++ indicates an IC100 < 10 μM)”. In addition, the “hERG (1uM)” value on hERG potassium channel is on record as “+ (+ indicates less than 50% inhibition of hERG tail current)”. For the same compound, the IC100 (in data set [1]; in the data set on MC3T3 osteoblast cells) was less than 10 µM throughout.

With `COc1ccc2c3ccnc(C)c3n(CCN(C)CCO)c2c1` [Example 18, 2-((2-(7-methoxy-1-methyl-9H-pyrido[3,4-b]indol-9-yl)ethyl)(methyl)amino)ethanol], on sclerostin, the “Sclerostin Inhibition Assay; improvement over sclerostin alone.” value is listed as “++ (++ indicates an IC100 < 10 μM)”. Also, on hERG potassium channel, the “hERG (1uM)” value is recorded as “+ (+ indicates less than 50% inhibition of hERG tail current)”. Moreover, the IC100 (in data set [1]; with MC3T3 osteoblast cells) was less than 10 µM throughout.

For `CC1(C)COCCN1CCn1c2cc(O)ccc2c2ccnc(C(F)(F)F)c21` [Example 32, 9-(2-(3,3-dimethylmorpholino)ethyl)-1-(trifluoromethyl)-9H-pyrido[3,4-b]indol-7-ol], the “Sclerostin Inhibition Assay; improvement over sclerostin alone.” value at sclerostin is given as “++ (++ indicates an IC100 < 10 μM)”. Moreover, the “hERG (1uM)” value at hERG potassium channel is recorded as “+ (+ indicates less than 50% inhibition of hERG tail current)”. For the same compound, the IC100 (in data set [1]; in the data set with MC3T3 osteoblast cells) was less than 10 µM in each case.

With `COc1ccc2c3ccnc(C)c3n(CC(C)N3CCOCC3)c2c1` (centres unmarked) [Example 8, 4-(1-(7-methoxy-1-methyl-9H-pyrido[3,4-b]indol-9-yl)propan-2-yl) morpholine], the “Sclerostin Inhibition Assay; improvement over sclerostin alone.” value on sclerostin is listed as “++ (++ indicates an IC100 < 10 μM)”. In addition, at hERG potassium channel, the “hERG (1uM)” value is recorded as “+ (+ indicates less than 50% inhibition of hERG tail current)”. Moreover, the IC100 (in data set [1]; in the data set on MC3T3 osteoblast cells) was less than 10 µM each time.

In the case of `COc1ccc2c3ccnc(C(F)(F)F)c3n(CCN(CCO)CCO)c2c1` [Example 35, 2,2′-((2-(7-methoxy-1-(trifluoromethyl)-9H-pyrido[3,4-b]indol-9-yl)ethyl)azanediyl)diethanol], the “Sclerostin Inhibition Assay; improvement over sclerostin alone.” value on sclerostin was “++ (++ indicates an IC100 < 10 μM)”. Also, on hERG potassium channel, the “hERG (1uM)” value is on record as “+ (+ indicates less than 50% inhibition of hERG tail current)”. In addition, the IC100 (in data set [1]; in the data set on MC3T3 osteoblast cells) was less than 10 µM each time.

For `COc1ccc2c(c1)[nH]c1c(C)nc(OC)cc12` [Example 40, 3,7-dimethoxy-1-methyl-9H-pyrido[3,4-b]indole], on sclerostin, the “Sclerostin Inhibition Assay; improvement over sclerostin alone.” value is “++ (++ indicates an IC100 < 10 μM)”. Also, the “hERG (1uM)” value at hERG potassium channel is “+ (+ indicates less than 50% inhibition of hERG tail current)”. Further, the IC100 (in data set [1]; in the data set on MC3T3 osteoblast cells) was less than 10 µM in each case.

For `COc1ccc2c(c1)[nH]c1c(C(F)(F)F)nccc12` [Example 22, 7-methoxy-1-(trifluoromethyl)-9H-pyrido[3,4-b]indole], the “Sclerostin Inhibition Assay; improvement over sclerostin alone.” value on sclerostin was “++ (++ indicates an IC100 < 10 μM)”. Besides, the “hERG (1uM)” value on hERG potassium channel is recorded as “+ (+ indicates less than 50% inhibition of hERG tail current)”. For the same compound, the IC100 (in data set [1]; in the data set with MC3T3 osteoblast cells) was less than 10 µM in each case.

For `COc1ccc2c3ccnc(C)c3n(CCN3CCOCC3)c2c1` [Example 12, 4-(2-(7-methoxy-1-methyl-9H-pyrido[3,4-b]indol-9-yl)ethyl)morpholine], the “Sclerostin Inhibition Assay; improvement over sclerostin alone.” value at sclerostin is reported as “++ (++ indicates an IC100 < 10 μM)”. Further, the “hERG (1uM)” value at hERG potassium channel is reported as “+ (+ indicates less than 50% inhibition of hERG tail current)”. Besides, the IC100 (in data set [1]; in the data set with MC3T3 osteoblast cells) was less than 10 µM each time.

Turning to `COc1ccc2c3ccnc(C)c3n(CCCN3CCN(C(=O)OC(C)(C)C)CC3)c2c1` [Example 15, t-butyl 4-(3-(7-methoxy-1-methyl-9H-pyrido[3,4-b]indol-9-yl)propyl) piperazine-1-carboxylate], at sclerostin, the “Sclerostin Inhibition Assay; improvement over sclerostin alone.” value is “++ (++ indicates an IC100 < 10 μM)”. For the same compound, on hERG potassium channel, the “hERG (1uM)” value is listed as “++ (++ indicates more than 50% inhibition of hERG tail current)”. The IC100 (in data set [1]; with MC3T3 osteoblast cells) was less than 10 µM each time.

For the compound `COc1ccc2c3ccnc(C)c3n(CCN3CCN(C(=O)OC(C)(C)C)CC3)c2c1` [Example 14, t-butyl 4-(2-(7-methoxy-1-methyl-9H-pyrido[3,4-b]indol-9-yl)ethyl) piperazine-1-carboxylate], at sclerostin, the “Sclerostin Inhibition Assay; improvement over sclerostin alone.” value was “++ (++ indicates an IC100 < 10 μM)”. Further, the IC100 (in data set [1]; with MC3T3 osteoblast cells) was less than 10 µM in each case.

Take `Oc1ccc2c(c1)[nH]c1c(C(F)(F)F)nccc12` [Example 23, 1-(trifluoromethyl)-9H-pyrido[3,4-b]indol-7-ol]: the “Sclerostin Inhibition Assay; improvement over sclerostin alone.” value on sclerostin is recorded as “++ (++ indicates an IC100 < 10 μM)”. The IC100 (in data set [1]; in the data set on MC3T3 osteoblast cells) was less than 10 µM in each case.
